Read-outs that look alike come from different tables or passages of the source.
How the values were obtained:
McoG [1] = conditions: read-out: ABTS; pH 5.0; 0.125 to 15 mM substrate
McoB [2] = conditions: read-out: ABTS; pH 5.0; 0.125 to 15 mM substrate
McoB [3] = molecular target: T1, McoB; test: initial oxidation rate at […] nm, Michaelis-Menten fit; assay type: biochemical, Aspergillus niger; conditions: substrate inhibition; second site; pH 5.0
T1 construct: secreted, homologously expressed in A. niger N593, purified from culture supernatant; theoretical ~63 kDa, ~88 kDa SDS-PAGE, ~96 kDa gel filtration; monomer; yellow

McoG [4] = system: T2, McoG; test: as above; assay type: biochemical, Aspergillus niger; conditions: pH 5.0; 0.125 to 15 mM substrate; fit with substrate inhibition; read-out: DMPPDA
T2 construct: secreted, homologously expressed in A. niger N593, purified from culture supernatant; theoretical ~65 kDa, ~80 kDa SDS-PAGE, ~99 kDa gel filtration; monomer; blue

McoG [5] = molecular target: T2, McoG; test: as above; assay type: biochemical, Aspergillus niger; conditions: substrate inhibition; second site; pH 5.0
McoB [6] = system: T1, McoB; test: as above; assay type: biochemical, Aspergillus niger; conditions: pH 5.0; 0.125 to 15 mM substrate; fit with substrate inhibition; read-out: DMPPDA
McoA = system: T3, McoA; test: as above; assay type: biochemical, Aspergillus niger; conditions: pH 5.0; 0.125 to 15 mM substrate; read-out: DMPPDA
T3 construct: secreted, homologously expressed in A. niger N593, purified from culture supernatant; theoretical ~64 kDa, ~110 kDa SDS-PAGE, ~120 kDa gel filtration; monomer; blue

Row | Km (McoG [1]) [µM] | Km (McoB [2]) [µM] | SMILES | Ki (McoB [3]) [mM] | Km (McoG [4]) [µM] | Ki (McoG [5]) [mM] | Km (McoB [6]) [µM] | Km (McoA) [µM]
1 | 5600 ± 1000 | 500 ± 100 | CCn1c(=NN=c2sc3cc(S(=O)(=O)O)ccc3n2CC)sc2cc(S(=O)(=O)O)ccc21 [ABTS] |  |  |  |  | 
2 |  |  | CN(C)c1ccc(N)cc1 [DMPPDA] | 22.4 ± 6.4 | 1800 ± 300 | 4.6 ± 0.7 | 400 ± 100 | 3600 ± 200

Source: publication PMC3548707, “Biocatalytic potential of laccase-like multicopper oxidases from Aspergillus niger” (Microbial Cell Factories, 2012)
